The results in this text go back to patent publication US6949533B2, “6,7-Oxygenated steroids and uses related thereto” (Inflazyme Pharmaceuticals Ltd., priority 1996, dated 2005).

The test system of one test is rabbit platelets. In words: PAF-induced aggregation of rabbit platelets. Conditions: Oryctolagus cuniculus, Platelet, read-out: % Inhibition at 80 μM. It is filed as cell-based. An excerpt: Within the present invention, it was discovered that the polyhydroxylated steroids as well as intermediates described in previous sections inhibited the aggregation of platelets caused by platelet activating factor (PAF). PAF is a local mediator of thrombosis and prevention of the formation of blood clots has direct implication in the treatment of thrombosis and associated cardiovascular diseases. The assay system used to evaluate the ability of compounds to inhibit the aggregation of platelets in response to exogenous stimuli is indicative of anti-thrombotic or thrombolytic activity.
Platelets were isolated from rabbit blood and prepared at a density of 2.4×10^8 cells/ml in Tyrodes buffer (pH 7.2) containing Ca^2+. Platelets were incubated with each compound for 5 min at 37° C. prior to stimulation. Platelets were stimulated with 1 nM platelet activating factor (PAF; EC75) in the presence of each of the compounds and aggregation was monitored for 5 min. Compounds were solubilized in dimethylsulfoxide (DMSO) and aggregation was measured as a percentage of the response to 1 nM PAF obtained in the presence of the appropriate concentration of DMSO. The degree of inhibition caused by each sample was calculated using the control response in the presence of DMSO equal to 100%.

The next test relates to guinea pig ileum. The test is described as follows: antigen-induced contraction of ileum from sensitized guinea pigs. Conditions: Cavia porcellus, read-out: Percentage Inhibition, 30 μM compound, n = 3-4. Here is the method: The ability of compounds to inhibit allergen-induced contraction of ileum from sensitized animals is indicative of antiallergic activity. Sensitized guinea pig ileum is particularly useful in measuring the immediate allergic response.
The guinea pig ileum has been used to evaluate the ability of compounds to inhibit allergan-induced histamine and mediator release causing smooth muscle contraction. Guinea pigs were sensitized by an intraperitoneal injection of 100 mg ovalbumin and an intramuscular injection of 50 mg ovalbumin on day 0, followed by a second intramuscular injection of 50 mg ovalbumin on day 1. […] Segments of ileum were prepared and suspended, with muscle contractions being measured in the longitudinal plane, in Tyrode's buffer at 37° C. and aerated with 5% CO2 in O2. Tissues were suspended under a resting tension of 2 grams and isometric contractions were measured using force-displacement transducers coupled to a polygraph. Tissues were stimulated with 3 μM histamine 3 times to ensure reproducible contractions were obtained. Tissues were then incubated with each compound (30 μM) or 0.15% dimethylsulphoxide (DMSO) as a control, for 20 min, after which time the tissues were challenged with 100 μg/ml ovalbumin. The magnitude of the contraction induced by OA in the presence of each compound was expressed as a percentage of the contraction obtained to 3 μM histamine. The protective effects of the various compounds on OA-induced contraction of guinea pig ileum from sensitized animals are summarized in Table 4.

A further test relates to NF-κB. In words: NF-κB gel shift binding assay in TPA-stimulated RBL-2H3 cells. It is filed as cell-based. The conditions noted are these: Rattus norvegicus, compound 1 μM, 2 hours preincubation, read-out: Percent Inhibition of Response to TPA (0.1 μM).
The subject of test [1] is passively sensitized rat mast cells (RBL-2H3). The test is described as follows: antigen-induced release of hexosaminidase from RBL-2H3 cells. It is filed as cell-based. Conditions: for inhibition at 25 µM: Rattus norvegicus. As to the method:
(§1) The anti-allergic effects of various polyhydroxylated steroids of the present invention were evaluated by measuring their effect on antigen-induced secretion of hexosaminidase from a passively sensitized rat mast cell line (RBL-2H3) and a murine mast cell line (MC/9). The ability of agents to inhibit the release of mast cell granule contents, e.g., histamine and hexosaminidase, is indicative of anti-allergy and/or anti-asthma activity.
(§2) Hexosaminidase is released from the mast cell granule along with histamine and other mediators during antigen challenge. RBL-2H3 and MC/9 cells were grown in culture and passively sensitized to dinitrophenol (DNP) using anti-human-DNP (IgE). Cells were incubated with each compound (25 μM) for 1 hour at 37° C. and then stimulated with 0.1 mg/ml DNP-HSA (antigen) for 15 min. Aliquots of the supernatant were removed and used to measure the amount of hexosaminidase released during challenge with the antigen. The amount of hexosaminidase present in the supernatant was determined calorimetrically by monitoring the enzymatic metabolism of p-nitrophenyl-N-acetyl-β-D-glucosaminide (p-NAG) over a period of 1 hour at 410 nm. The effect of each compound was determined as a percentage of the antigen-induced response (minus background release) obtained in the presence of DMSO alone, as set forth in Tables 2 and 3. These values were used to determine the degrees of inhibition of antigen-induced hexosaminidase release from the cells.

For a further test, the system named is mouse mast cells (MC/9). The test is described as follows: antigen-induced release of hexosaminidase from MC/9 cells. Conditions: for inhibition at 25 µM: Mus musculus, MC9, 25 μM compound, read-out: Percentage Inhibition (mean) MC/9 cells. It is filed as cell-based. Here is the method: as §1, §2
A further test has as its system isolated trachea. Details: species or system guinea pig. Conditions: compound 20 μM. Here is the method: The effects of a number of the compounds described herein on allergen-induced bronchoconstriction were evaluated for anti-asthma activity. The ability of a compound to inhibit allergen-induced decreases in lung function in sensitized guinea pigs in response to antigen-challenge is indicative of anti-asthma activity. In particular, the model system is useful in the evaluation of the potential effects of a compound in the treatment of the early asthmatic reaction (EAR) when severe bronchoconstriction occurs.
Guinea pigs were exposed to a nebulized solution of 1% ovalbumin (OA) in saline for 15 min. […] Tracheal rings were prepared and bathed in Krebs-Henseleit solution at 37° C. and aerated with 5% CO2 in […]. Tissues were suspended under a resting tension of 2 g and isometric contractions were measured using force-displacement transducers coupled to a polygraph. Tissues were incubated with each compound or 0.1% dimethylsulfoxide (as a control) for 20 min, after which increasing concentrations of OA (0.001-100 μg/ml) were added to the tissue. After the final concentration of OA was added and the response was recorded, the tissues were stimulated with 100 μM methacholine which caused maximum contraction of the trachea. The magnitude of the contraction induced by OA in the presence of each compound was expressed as a percentage of the maximum contraction obtained using methacholine (100 μM).

The next test concerns sensitized guinea pigs. In words: allergen-induced changes in lung resistance and compliance in vivo. Also noted: species or system guinea pig. Conditions: 5 mg/kg/day for 4 days p.o. Here is the method: Female Cam Hartley guinea pigs (350-400 g) are sensitized to ovalbumin by exposure of the guinea pigs to a nebulized solution of 1% ovalbumin in saline for 15 minutes. After 10-12 days, the animals are found to be acutely sensitized to the allergen (ovalbumin). Animals are treated by oral gavage, under light halothane anesthesia, with 300 μl polyethyleneglycol-200 (PEG) or 5 mg/Kg of test compound in 300 μl of PEG. Animals are treated once daily for 4 days with the final dose administered 2 hours prior to allergen challenge. Alternatively, compounds were delivered by inhalation, using a Hudson nebulizer driven by 6 psi oxygen, providing a single dose of 50 μg/Kg 20 min prior to challenge.
An animal is anaesthetized using ketamine ([…]; i.p.) and xylazine (10 mg/Kg; i.p.) and 1% halothane during the surgical procedure. A tracheostomy is performed and a water-filled esophageal cannula is inserted prior to positioning the animal in a body plethysmograph. The tracheal cannula is attached to a fixed tracheal cannula in the plethysmograph. Cardiac function is monitored using electrocardiography. The animal is paralyzed using pancuronium bromide (0.8 mg/Kg; i.m.) and ventilated with 3 ml tidal breaths using a Harvard small animal ventilator, at a frequency of 60 breaths per minute. Pulmonary resistance and dynamic lung compliance data are obtained from volume, flow and transpulmonary pressure signals using multipoint analysis.
Pulmonary function is continually monitored throughout the experiment and measurements of lung resistance and lung compliance are made at various time-points (e.g., 0, 1, 2, 3, 4, 5, 10, 20 and 30 min) following antigen challenge. Data is collected on a computer-linked physiological measurement system using DIREC Physiological recording software and analyzed using ANADAT software designed for lung mechanics measurements. This software was obtained from RHT-InfoDat Inc., Montreal, Quebec, Canada.
Once baseline resistance and compliance measurements are obtained, the animal is challenged with 6 breaths of saline. After 10 minutes, during which time no alterations in lung function should occur, the animal is challenged with 6 breaths of 2 or 3% ovalbumin in saline (as the antigen stimulus). Saline and antigen are delivered in each breath using a Hudson nebulizer.

The mark [2] stands for this setting: RBL-2H3, 25 μM compound, antigen-induced hexosaminidase release, read-out: Percentage Inhibition (mean) RBL-2H3 Cells.
The mark [3] stands for this setting: RBL-2H3, read-out: Percentage Inhibition (mean) RBL-2H3 Cells.

Read-outs that look alike come from different tables or passages of the source.

For the compound `CC1(C)O[C@@H]2C3=CC(=O)CC[C@]3(C)C3CC[C@]4(C)C(=O)CCC4C3[C@H]2O1` (stereo partly shown) [Compound 8], the inhibition at 80 µM with rabbit platelets (80 μM compound, 5 min preincubation, PAF-stimulated rabbit platelets (title: 0.1 nM PAF)) was determined as 11.6%.
For `C/C=C1/CCC2C3C(CC[C@]12C)[C@@]1(C)CC[C@H](O)CC1[C@@H](O)[C@@H]3O` (stereo partly shown) [Compound 333], the inhibition at 30 µM in the test with guinea pig ileum came out at 63%. Besides, in the test on NF-κB, the inhibition at 1 µM stood at 34%. Besides, the inhibition at 25 µM amounted to 69% in test [1] (setting [2]) and 71% with mouse mast cells (MC/9).
Consider `CC1(C)O[C@@H]2C3C(CC[C@@]4(C)C3CC[C@@H]4O[Si](C)(C)C(C)(C)C)[C@@]3(C)CC[C@H](O)[C@@H](O)C3[C@H]2O1` (stereo partly shown) [Compound 236], for which the “percentage contraction compared to 100 μM methacholine” value (“percentage contraction” below) is reported as 5.6% in the test with isolated trachea (OA 0.01 μg/ml, study 1); 5.6% in the test with isolated trachea (OA 0.03 μg/ml, study 1); 39% with isolated trachea (OA 10.0 μg/ml, study 1). Besides, the inhibition at 25 µM in test [1] (setting [3]) worked out at 31%. In the test with rabbit platelets, the inhibition at 80 µM was 100%.
On to `C[C@]12CCC(=O)C=C1[C@@H](O)[C@H](O)C1C2CC[C@]2(C)C(=O)CCC12` (stereo partly shown) [Compound 7], for which the inhibition at 30 µM with guinea pig ileum was determined as 54%. Also, the inhibition at 25 µM in test [1] (setting [3]) was found to be 21.7%. Moreover, in the test on rabbit platelets, the inhibition at 80 µM is 12.3%.
Take `C[C@]12CC[C@@H](O)C[C@@H]1[C@@H](O)[C@H](O)[C@@H]1[C@@H]2CC[C@]2(C)[C@@H](O)CC[C@@H]12` [Compound 327]: the “percentage contraction” value in the test on isolated trachea (OA 0.01 μg/ml, study 2) stood at 0%; with isolated trachea (OA 0.1 μg/ml, study 2), 0%. The inhibition at 25 µM in test [1] (setting [3]) amounted to 35.2%.
For `C[C@]12CC[C@@H](O)C[C@@H]1[C@@H](O)[C@H](O)[C@@H]1[C@@H]2CC[C@]2(C)C(=O)CC[C@@H]12` [Compound 326], the “percentage contraction” value in the test with isolated trachea (OA 0.01 μg/ml, study 2) turned out to be 0%.
As to `CC[C@H]1CCC2C3C(CC[C@@]21C)[C@@]1(C)CC[C@@H](O)CC1[C@@H](O)[C@@H]3O` (stereo partly shown) [Compound 339], the inhibition at 30 µM with guinea pig ileum came out at 40.6%. For the same compound, the inhibition at 1 µM with NF-κB was determined as 65%. Besides, in test [1] (25 μM compound, antigen-induced hexosaminidase release, 25 µM), the “Percentage Inhibition (mean) RBL-2H3 Cells” value is on record as 76%. Moreover, the inhibition at 25 µM in test [1] (setting [2]) came out at 79%; with mouse mast cells (MC/9) it was 67%. Moreover, in the test with mouse mast cells (MC/9) (25 μM compound, 25 µM), the “Percentage Inhibition (mean) MC/9 cells” value is 55%. Further, the “Lung Compliance” value was 0.172 ± 0.027 ml/cm H2O with sensitized guinea pigs (1 min after challenge); 0.088 ± 0.018 ml/cm H2O in the test with sensitized guinea pigs (2 min after challenge); 0.060 ± 0.017 ml/cm H2O with sensitized guinea pigs (3 min after challenge); 0.050 ± 0.013 ml/cm H2O in the test with sensitized guinea pigs (4 min after challenge); 0.051 ± 0.011 ml/cm H2O with sensitized guinea pigs (5 min after challenge); 0.084 ± 0.012 ml/cm H2O in the test on sensitized guinea pigs (10 min after challenge). Further, the “Lung Compliance” value came out at 0.123 ± 0.015 ml/cm H2O in the test on sensitized guinea pigs (20 min after challenge), 0.150 ± 0.012 ml/cm H2O in the test with sensitized guinea pigs (30 min after challenge), 0.463 ± 0.026 ml/cm H2O in the test on sensitized guinea pigs (Baseline) and 0.442 ± 0.025 ml/cm H2O with sensitized guinea pigs (OA/10 s). The “Lung Resistance” value is 0.326 ± 0.041 cm H2O/ml/sec in the test on sensitized guinea pigs (1 min after challenge); 0.522 ± 0.187 cm H2O/ml/sec with sensitized guinea pigs (2 min after challenge); 1.102 ± 0.047 cm H2O/ml/sec in the test with sensitized guinea pigs (3 min after challenge); 0.996 ± 0.380 cm H2O/ml/sec in the test on sensitized guinea pigs (4 min after challenge); 1.014 ± 0.413 cm H2O/ml/sec with sensitized guinea pigs (5 min after challenge); 0.440 ± 0.099 cm H2O/ml/sec with sensitized guinea pigs (10 min after challenge). In addition, the “Lung Resistance” value with sensitized guinea pigs (20 min after challenge) was 0.296 ± 0.031 cm H2O/ml/sec; in the test on sensitized guinea pigs (30 min after challenge), 0.291 ± 0.037 cm H2O/ml/sec; with sensitized guinea pigs (Baseline), 0.249 ± 0.017 cm H2O/ml/sec; in the test with sensitized guinea pigs (OA/10 s), 0.239 ± 0.013 cm H2O/ml/sec.
